{"source": "patent US20110212100A1", "about": "“METHODS FOR MODULATING DEVELOPMENT AND EXPANSION OF IL-17 EXPRESSING CELLS” (priority 2007, published 2011)", "format_in_all_cases": "cell-based, mouse", "key": {"[1]": {"test_system": "FoxP3 expression in CD4+ CD25− T cells", "assay": "Foxp3 (Treg marker) expression in TGFβ/IL-6 treated T cells", "procedure": "Low doses of halofuginone (HF) were tested to determine the ability of HF to enhance Treg differentiation, while suppressing Th17 differentiation. Nave. CD4+ T cells (CD4+ CD25−) were isolated from the spleen and peripheral lymph nodes of C57B/6 mice. T cells were then activated using anti-CD3 (0.3 μg/ml) and anti-CD28 (0.5 μg/ml) antibodies either in media alone (row 1, 4), TGFβ alone (3 ng/ml—row 2, 5) or TGFβ (3 ng/ml) plus IL-6 (30 ng/ml) (row 3, 6). […] T cells were cultured for 3 days and CD25 and Foxp3 expression (Treg marker genes) was determine by FACS staining and flow cytometric analyses. Simultaneously, T cells were harvested and re-stimulated for 4 hours using phorbol myristic acetate (PMA; 10 nM), Ionomycin (1 μM) and cytokine secretion was prevented using brefeldin A (20 μg/ml). Following stimulation, the production of IL-17 and IFNγ were determined by intracellular staining and analyzed via flow cytometry. […]\nFACS analyses and sorting: All cell surface staining was performed in FACS buffer (PBS/2% FCS/0.1% NaN3) and antibodies were incubated with cells on ice for 20-30 minutes. […] All FACS data was acquired on a FACSCalibur flow cytometer (BD Pharmingen) and analyzed using FlowJo software (Treestar, Inc., Ashland, Oreg.). […]"}, "RORγt": {"test_system": "RORγt", "assay": "RORγt expression during Th17 differentiation (real-time PCR)", "conditions": "10 nM HF", "procedure": "T cells were harvested at the indicated times following activation, RNA was isolated and quantitative real-time PCR was performed using RORγt-specific primers and taqman probe. RORγt expression was normalized to Gapdh levels, and the data are presented as fold changes relative to naïve T cells.\nQuantitative real-time PCR: T cells were activated as described above, collected at the indicated times and pellets were flash-frozen in liquid nitrogen. Total RNA was obtained by RNeasy (Quiagen, Valencia, Calif.) column purification per manufacturers instructions. RORγt expression was determined after reverse transcription using the message sensor kit (Ambion, Austin, Tex.) per manufacturers instructions and taqman primers and probe as described elsewhere (I. Ivanov, et al., Cell 126, 1121, 2006). Sybrgreen quantitative real-time PCR was performed on T cell RNA samples following reverse transcription via SuperScript II first-strand cDNA synthesis kit (Invitrogen, Carlsbad, Calif.). All PCR data was collected on an iCycler thermal cycler (Biorad, Hercules, Calif.). Primer sequences used for detecting stress response genes are listed below."}, "[2]": {"test_system": "B220+ B cells and CD8+ T cells", "assay": "B cell and CD8+ T cell proliferation and function", "procedure": "The non-specific effects of HF on B and CD8+ T cells were evaluated. B220+ B cells or CD8+ T cells were isolated from the spleen and peripheral lymph nodes of C57B/6 mice. B cell proliferation and IL-6 production was induced by culturing the cells with LPS (0.5 μg/ml) for 4 days. The effects of HF on B cell function was determined by adding titrating amounts of HF (1.25 nM-40 nM) at the time of LPS stimulation. B cell proliferation was monitored by labeling cells with Carboxyfluorescein diacetate, succinimidyl ester (CFSE; 5 μM) prior to LPS stimulation and determining the rate of CFSE dilution after 4 days by flow cytometric analyses. LPS-induced IL-6 production by B cells was determined by intracellular staining on day 4, following PMA+Ionomycin+Brefeldin A re-stimulation as described above. For CD8+ T cell experiments, purified CD8+ T cells were labeled with CFSE as above and the T cells were activated using anti-CD3 (1 μg/ml) and anti-CD28 (1 μg/ml) antibodies. […] CD8+ T cell proliferation was determined by monitoring CFSE dilution on day 3-post activation; CD25 expression was determined by FACS staining on day 2 of culture; differentiation of CD8+ T cells into cytolytic T cells (CTL) was evaluated on day 4 by determining expression of IFNγ and granzyme B following PMA+Ionomycin+Brefeldin A re-stimulation. […]"}}, "note": "Values joined by “and” are separate entries in the source; they are usually repeats but may differ in a detail not shown here. Equal values may be shown once."}
{"smiles": "O=C(CC1NCCCC1O)Cn1cnc2cc(Br)c(Cl)cc2c1=O", "note": "(racemic) [HF, 7-bromo-6-chloro-3-[3-(3-hydroxy-2-piperidinyl)-2-oxopropyl]-4(3H)-quinazolinone]", "values": [{"measurement": "Foxp3 expression of T cells differentiated in the presence of HF, in words", "setting": "[1]; 10 nM HF, TGFβ plus IL-6, day 3", "result": "enhanced Foxp3 expression"}, {"measurement": "concentration increasing FoxP3 expression concomitantly with inhibiting IL-17 expression", "setting": "[1]; TGFβ/IL-6 treated T-cells", "result": "2.5 to 10 nM and 2.2 to 10 nM"}, {"measurement": "effect on upregulation of RORγt or RORγ during Th17 differentiation, in words", "setting": "RORγt", "result": "did not interfere with the upregulation of RORγt or RORγ"}, {"measurement": "dose at which B and CD8+ T cells were profoundly impaired in proliferation and function", "setting": "[2]", "result": "greater than 20 nM"}, {"measurement": "effect on B and CD8+ T cell function or proliferation, in words", "setting": "[2]; doses lower than 10 nM", "result": "little or no effect"}]}
